≈ marks a conversion by molar mass, not a printed value.
How the values were obtained:
S. aureus Sa22 [1] = assay: BMD susceptibility test; format: cell-based, Staphylococcus aureus; conditions: unit assumed
S. aureus ATCC29213 [2] = assay: FaAST (FDAA metabolic labeling method); format: cell-based, Staphylococcus aureus; conditions: unit assumed
Method: (§1) Take the colony to be tested that has been cultured overnight on the plate and fully mix it in normal saline to make a uniform bacterial solution. Dilute it into Cation-Adjusted Mueller Hinton Broth (CAMHB) culture medium to make a bacterial solution with OD600=0.05. • 2. Add 45 μl antibiotic solutions of different concentrations to 96-well plates (see Table 1 for antibiotic concentration gradient settings). • 3. Add 50 μl of the bacterial solution prepared in step 1 to the 96-well plate and mix well. • 4. Add 5 μl of 10 mM Cy5-DAA probe (final concentration 0.15 mM, see FIG. 1 for its structure) into each well, mix well, and cultivate in dark for 2 hours. • 5. Add 200 μl After PBS solution is diluted, the fluorescence intensity of each sample is detected by flow cytometry. The flow detection results are shown in FIG. 4-5, showing the curve of the change of antibiotic concentration gradient and fluorescence intensity. The MIC (minimum inhibitory concentration) can be obtained by referring to this curve.
(§2) Bacteria with antibiotic resistance are shown in bold in the following table.

S. aureus Sa22 [3] = assay: FaAST (FDAA metabolic labeling method); format: cell-based, Staphylococcus aureus; conditions: unit assumed
Method: as §1, §2

S. aureus Sa23 [4] = assay: FaAST (FDAA metabolic labeling method); format: cell-based, Staphylococcus aureus; conditions: unit assumed
Method: as §1, §2

S. aureus Sa23 [5] = assay: BMD susceptibility test; format: cell-based, Staphylococcus aureus; conditions: unit assumed
S. aureus ATCC29213 [6] = assay: BMD susceptibility test; format: cell-based, Staphylococcus aureus; conditions: unit assumed
E. faecium Ef26 [7] = assay: BMD susceptibility test; format: cell-based, Enterococcus faecium; conditions: unit assumed
E. faecium Ef26 [8] = assay: FaAST (FDAA metabolic labeling method); format: cell-based, Enterococcus faecium; conditions: unit assumed
Method: as §1, §2

E. faecium Ef28 [9] = assay: BMD susceptibility test; format: cell-based, Enterococcus faecium; conditions: unit assumed
E. faecium Ef28 [10] = assay: FaAST (FDAA metabolic labeling method); format: cell-based, Enterococcus faecium; conditions: unit assumed
Method: as §1, with “The flow detection results are shown in FIG. 4-5, showing the curve of the change of antibiotic concentration gradient and fluorescence intensity.” left out

E. faecalis ATCC29212 [11] = assay: BMD susceptibility test; format: cell-based, Enterococcus faecalis; conditions: unit assumed
E. faecalis ATCC29212 [12] = assay: FaAST (FDAA metabolic labeling method); format: cell-based, Enterococcus faecalis; conditions: unit assumed
Method: as §1, §2

[13] = test system: alveolar lavage fluid sample 0130, A. baumannii; assay: BMD susceptibility test of patient alveolar lavage fluid; format: cell-based, Acinetobacter baumannii; conditions: unit assumed
From the text: (§3) The results of antimicrobial susceptibility test of alveolar lavage fluid of seven patients using FDAA and BMD methods are shown in the following table. The drug-resistant bacteria are shown in bold.

[14] = test system: alveolar lavage fluid sample 0206, A. baumannii; assay: as above; format: cell-based, Acinetobacter baumannii; conditions: unit assumed
From the text: as §3

[15] = test system: alveolar lavage fluid sample 0219, A. baumannii; assay: as above; format: cell-based, Acinetobacter baumannii; conditions: unit assumed
From the text: as §3

[16] = test system: alveolar lavage fluid sample 0130, A. baumannii; assay: FaAST (FDAA) susceptibility test of patient alveolar lavage fluid; format: cell-based, Acinetobacter baumannii; conditions: unit assumed
Method: (§4) With reference to the flow chart of the rapid detection method of antimicrobial susceptibility test based on FDAA metabolic markers shown in FIG. 3, FDAA is used for the detection of antimicrobial susceptibility test of alveolar lavage fluid. The specific experimental steps are as follows: • 1. Mix bronchoalveolar lavage fluid (BALF, 10 ml) of patients with hospital acquired pneumonia with cation regulated broth medium (CAMHB, 10 ml) of twice the concentration to prepare the bacterial fluid to be tested. • 2. Add 45 μl antibiotic solutions of different concentrations to the 96-well plate separately (see Table 1 for antibiotic concentration gradient settings). • 3. Add 50 μl of the bacterial solution prepared in step 1 to the 96-well plate and mix well. • 4. Add 5 μl of 10 mM Cy5-DAA probe (final concentration 0.15 mM, see FIG. 1 for its structure) into each well, mix well, and then cultivate in dark for 2 hours. • 5. Add 200 μl PBS solution for dilution, and then use flow cytometry to detect the fluorescence intensity of each sample.
as §3

[17] = test system: alveolar lavage fluid sample 0204, A. baumannii; assay: as above; format: cell-based, Acinetobacter baumannii; conditions: unit assumed
Method: as §4, §3

[18] = test system: alveolar lavage fluid sample 0206, A. baumannii; assay: as above; format: cell-based, Acinetobacter baumannii; conditions: unit assumed
Method: as §4, §3

[19] = test system: alveolar lavage fluid sample 0219, A. baumannii; assay: as above; format: cell-based, Acinetobacter baumannii; conditions: unit assumed
Method: as §4, §3

[20] = test system: alveolar lavage fluid sample 0203, K. pneumoniae; assay: BMD susceptibility test of patient alveolar lavage fluid; format: cell-based, Klebsiella pneumoniae; conditions: unit assumed
From the text: as §3

[21] = test system: alveolar lavage fluid sample 0226, K. pneumoniae; assay: as above; format: cell-based, Klebsiella pneumoniae; conditions: unit assumed
From the text: as §3

[22] = test system: alveolar lavage fluid sample 0203, K. pneumoniae; assay: FaAST (FDAA) susceptibility test of patient alveolar lavage fluid; format: cell-based, Klebsiella pneumoniae; conditions: unit assumed
Method: as §4, §3

[23] = test system: alveolar lavage fluid sample 0226, K. pneumoniae; assay: as above; format: cell-based, Klebsiella pneumoniae; conditions: unit assumed
Method: as §4, §3

[24] = test system: Staphylococcus aureus SA31; assay: FaAST with DAA-Tetra probe; format: cell-based; conditions: unit assumed
Method: The specific experimental steps are as follows: • 1. The tested colonies cultured overnight on the plate were picked and mixed thoroughly in 2× Cation-Adjusted Mueller Hinton Broth medium (2×CAMHB) to make bacterial suspension with turbidity of OD600=0.1. • 2. […] Add 50 μL of the bacterial solution prepared in step 1 (the final concentration of the bacterial solution is OD600=0.05) to the 96-well plate, and add 5 μL of 3 mM DAA-Tetra probe (the final concentration is 0.15 mM), mix well, and incubate in the dark at 37° C. 120 rpm for 2 hours. • 4. After culture, dilute the mixed bacterial solution 10 times with PBS solution, and detect the fluorescence intensity of each sample with flow cytometry. The flow detection result is shown in FIG. 14-19, and the arrow is for the MIC value. The minimum inhibitory concentration of antibiotics was obtained according to the fluorescence signal intensity of flow detection, and the statistical results are shown in Table 6.

[25] = test system: Staphylococcus aureus SA31; assay: VITEK drug sensitivity test; format: cell-based; conditions: unit assumed
[26] = test system: Staphylococcus aureus SA22; assay: FaAST with DAA-Cy5-2 probe; format: cell-based; conditions: unit assumed
Method: as §4
The specific steps are the same as in Example 5. […] The minimum inhibitory concentration of antibiotics was obtained according to the fluorescence signal intensity of flow detection, and the statistical results are shown in Table 7.

[27] = test system: Staphylococcus aureus SA22; assay: VITEK drug sensitivity test; format: cell-based; conditions: unit assumed
S. aureus ATCC29213 [28] = conditions: cited from earlier work
E. faecalis ATCC29212 [29] = conditions: cited from earlier work

Compound: CC(=O)NC[C@H]1CN(c2ccc(N3CCOCC3)c(F)c2)C(=O)O1 [Linezolid, linezolid]
- BMD (MIC) (S. aureus Sa22 [1]): 2 mg/L
- FaAST (MIC) (S. aureus ATCC29213 [2]): 2 mg/L
- FaAST (MIC) (S. aureus Sa22 [3]): 1 mg/L
- FaAST (MIC) (S. aureus Sa23 [4]): 8 mg/L
- BMD (MIC) (S. aureus Sa23 [5]): 8 mg/L
- BMD (MIC) (S. aureus ATCC29213 [6]): 2 mg/L
- BMD (MIC) (E. faecium Ef26 [7]): 2 mg/L
- FaAST (MIC) (E. faecium Ef26 [8]): 2 mg/L
- BMD (MIC) (E. faecium Ef28 [9]): 2 mg/L
- FaAST (MIC) (E. faecium Ef28 [10]): 2 mg/L
- BMD (MIC) (E. faecalis ATCC29212 [11]): 1 mg/L
- FaAST (MIC) (E. faecalis ATCC29212 [12]): 2 mg/L
- BMD (MIC) [13]: 64 mg/L
- BMD (MIC) [14]: 128 mg/L
- BMD (MIC) [15]: 32 mg/L
- FaAST (MIC) [16]: 64 mg/L
- FaAST (MIC) [17]: 64 mg/L
- FaAST (MIC) [18]: 64 mg/L
- FaAST (MIC) [19]: 16 mg/L
- BMD (MIC) [20]: 64 mg/L
- BMD (MIC) [21]: 64 mg/L
- FaAST (MIC) [22]: 16 mg/L
- FaAST (MIC) [23]: 16 mg/L
- MIC, FaAST [24]: 1 mg/L (≈ 2.96 µM)
- MIC, VITEK [25]: 1 mg/L (≈ 2.96 µM)
- MIC, FaAST [26]: 0.5 mg/L (≈ 1.48 µM)
- MIC, VITEK [27]: 1 mg/L (≈ 2.96 µM)
- CLSI QC range (S. aureus ATCC29213 [28]): 1-4
- CLSI QC range (E. faecalis ATCC29212 [29]): 1-4

From patent US20240240224A1, “FLUORESCENT D-TYPE AMINO ACID METABOLISM MARKER-BASED METHOD FOR DETECTING ANTIBACTERIAL DRUG SENSITIVITY TEST” (priority 2020, published 2024)
